Values quoted from earlier work in patent publication US20230301919A1, “FREEZE DRIED LOW HYGROSCOPICITY ACTIVE POWDER COMPOSITIONS” (PHILIP MORRIS PRODUCTS S.A., priority 2020, published 2023).

Conditions: at 25° C.

Structure (SMILES): OC[C@H]1O[C@H](O[C@H]2O[C@H](CO)[C@@H](O)[C@H](O)[C@H]2O)[C@H](O)[C@@H](O)[C@@H]1O [trehalose]
- solubility: 69 g/100 ml water
